Key:
[1] = system: WI-38 cell with activated Raf kinase region-estrogen receptor fusion gene; test: β-galactosidase positive cells in tamoxifen-inducible activated Raf cellular senescence system; type: cell-based, human; conditions: for inhibition of the increase of cellular senescence-specific β-galactosidase positive cell induced by the activation of Raf: Raf activated by 10 nM tamoxifen, 25 μM inhibitor added simultaneously
Description: (§1) This is a result of fusing an estrogen receptor gene with a sequence coding for the kinase region of activated Raf gene.
(§2) (1) In accordance with the aforementioned method, induction of cellular senescence was tested by carrying out gene transfer into the WI-38 cell and thereby constructing a system which can induce cellular senescence by the administration of tamoxifen.
(§3) The results are shown in FIG. 12, FIG. 13, FIG. 14 and FIG. 15.

[2] = system: WI-38 cell with activated Raf kinase region-estrogen receptor fusion gene; test: Cell growth in tamoxifen-inducible activated Raf cellular senescence system; type: cell-based, human; conditions: for inhibition of the termination of cell growth induced by the activation of Raf: Raf activated by 10 nM tamoxifen, 25 μM inhibitor added simultaneously
Description: as §1, §2, §3

[3] = system: phosphorylation type p38 protein (active type p38 protein); test: Western blotting of phosphorylated state of p38 protein; type: cell-based, human; conditions: young cell (42 PD), 30 μmol//L anisomycin for 30 minutes, positive control, versus untreated young cell
Description: In this reference example, the phosphorylated state of p38 protein in young and senescent cells of the human normal fibroblast WI-38 was confirmed by a Western blotting respectively using an antibody capable of detecting total p38 protein and another antibody capable of specifically detecting a phosphorylation type p38 protein (namely active type p38 protein) alone.
Specifically, young and senescent cells of the human normal fibroblast WI-38 (about 5×10^6 cells) cultured in the same manner as in Reference Example 1(1) were respectively dissolved in 0.1 ml of a buffer solution for dissolution [lysis buffer; 150 mmol//L sodium chloride, 0.5% NP-40, 50 mmol//L Tris-HCl (pH 7.5), 3 mmol//L EDTA, 3 mmol//L EGTA, 3 mmol//L glycerophosphate, […] Na3VO4, 1 μg/ml leupeptin and 1 mmol//L phenylmethanesulfonyl fluoride (PMSF)].
Subsequently, each extraction sample corresponding to 30 μg as the amount of protein was separated by an SDS polyacrylamide gel electrophoresis in the usual way and then transferred on a membrane (Immobilon-P membrane; manufactured by Millipore). After subjecting the membrane to a blocking treatment using a commercially available blocking agent (Block Ace; manufactured. by Dainippon Pharmaceutical), a primary antibody reaction and a secondary antibody reaction were carried out in order. […]

[4] = system: human normal fibroblast WI-38; test: Cell growth curve (WST-1 relative cell number) of young and senescent WI-38 cells with p38 protein inhibitor; type: cell-based
Description: In the example, effect of a p38 protein inhibitor SB203580 was compared using the same young cell (42 times of division) and senescent cell (61 times of division) of the human normal fibroblast WI-38 used in Reference Example 1. Specifically, the same procedure of the following Example 2 (2) was repeated, except that a young cell (42 times of division) and a senescent cell (61 times of division) of the human normal fibroblast WI-38 cultured in the same manner in Reference Example 1(1) were used instead of the transformed cell.
In FIG. 3, the polygonal line a is cell growth curve of the young cell in the presence of SB203580, the polygonal line b is cell growth curve of the young cell in the absence of SB203580, the polygonal line c is cell growth curve of the senescent cell in the presence of SB203580 and the polygonal line d is cell growth curve of the senescent cell in the absence of SB203580. The symbol “+SB” in FIG. 3 means that it was treated with 10 μmol//L of SB203580.
The relative number of cells during these 6 days was measured every other day using a commercially available kit [Cell Counting Kit (WST-1 assay), manufactured. by DOJINDO].
The WST-1 assay is a method to know indirectly degree of cell growth ability with the use of the calorimetric determination of the activity of dehydration reactions wherein intracellular lactate dehydrogenase and the like are related.
Measurement and calculation of the relative cell number were specifically carried out by the following method. That is, 1,000 cells per each well of a 96 well plate were precultured for 24 hours. […] After the reaction, measurement was carried out using a plate reader (measuring wave length=450 nm). These were measured on three samples on each of the measuring days (on the 0th, 2nd, 4th and 6th days) during the growth period, and the average values were used as the data of respective measuring days. The relative number of cells of measured values on respective measuring days was calculated by defining the average of measured values on the 0th day as 1.

[5] = system: human normal fibroblast WI-38; test: Ratio of S phase cell by FACS analysis (BrdU labeling) in young and senescent WI-38 cells; type: cell-based
Description: Also, the ratio of S phase cells in each treated group was determined by FACS analysis in accordance with the procedure described in the following Example 2(3-a), and the results shown in FIG. 4. The symbol “+” in FIG. 4 means that it was treated with 10 μmol//L of SB203580.
[…] Next, the cells were fixed with 70% ethanol and treated with 2 mol//L hydrochloric acid for 30 minutes. Subsequently, they were neutralized with 0.1 mol//L sodium borate and then allowed to react with FITC-labeled anti-BrdU antibody (manufactured by BECTON DICKINSON) for 1 hour. After completion of the reaction, the cells were washed with a washing buffer [PBS containing 0.5% Tween 20 and 1% bovine serum albumin (BSA)] and suspended in a PBS solution containing 5 μg/ml ProPidium Iodide (PI). The samples were analyzed by a two dimensional flow cytometry.

[6] = system: MKK6 gene- or MKK6EE gene-introduced human normal fibroblast WI-38; conditions: 10 μmol//L SB203580 from the 4th day after infection, 6 days culture
Description: As the target cell, young cell (42 PD; 5×10^5 cells/10 cm dish) of the human normal fibroblast WI-38 was cultured for 8 hours in the virus supernatant to which polybrene (final concentration=8 μg/ml) had been added. The virus supernatant was once removed, and then fresh virus supernatant [containing polybrene (final concentration=8 μg/ml)] was again added, followed by the culturing for 8 hours. Each of the infection-treated cells was cultured for 3 days in DMEM containing puromycin (2.5 μg/ml).
On the 4th day after carrying out the infection, the medium was changed to DMEM containing 2.5% dimethyl sulfoxide (DMSO), followed by the culturing for 6 days. […] The relative number of cells during these 6 days was measured every other day using a commercially available kit [Cell Counting Kit (WST-1 assay), manufactured. by DOJINDO].
Measurement and calculation of the relative cell number were specifically carried out by the following method. […] After the reaction, measurement was carried out using a plate reader (measuring wave length=450 nm). These were measured on three samples on each of the measuring days (on the 0th, 2nd, 4th and 6th days) during the growth period, and the average values were used as the data of respective measuring days. The relative number of cells of measured values on respective measuring days was calculated by defining the average of measured values on the 0th day as 1. […]

[7] = system: MKK6 gene- or MKK6EE gene-introduced human normal fibroblast WI-38; test: Ratio of β-galactosidase positive cells in MKK6 or MKK6EE gene-introduced transformed cell; type: cell-based; conditions: 10 μmol//L SB203580, culturing period of 6 days
Description: Specifically, young and senescent cells of the human normal fibroblast WI-38 were respectively washed with PBS and then fixed using 0.5% glutaraldehyde aqueous solution. After the fixation, the cells were soaked in a staining solution [prepared by dissolving 1 mg/ml of X-gal (5-bromo-4-chloro-3-indolyl-β-galactosidase), 5 mmol//L potassium ferrocyanide, 5 mmol//L potassium feriocyanide and 1 mmol//L magnesium chloride in phosphate buffered saline (PBS; pH 6.0)] and allowed to react at 37° C. for 5 hours or more.
Next, the procedure described in Reference Example 1 (2) was repeated, except that the two species of the transformed cell of the present invention and one species of a control cell wherein the vector alone was introduced, obtained by repeating the same procedure of Example 2(1), (cells after a culturing period of 6 days in each case; SB203580-untreated cells) and the two species of the transformed cell of the present invention and one species of a control cell wherein the vector alone was introduced, obtained by repeating the same procedure of Example 2(2), (cells after a culturing period of 6 days in each case; SB203580-treated cells) were used. […]

[8] = system: human normal fibroblast WI-38; test: Cell morphology and cellular senescence-specific β-galactosidase activity in WI-38 cells; type: cell-based; conditions: senescent cell (61 times of division), SB203580-treated
Description: Specifically, young and senescent cells of the human normal fibroblast WI-38 were respectively washed with PBS and then fixed using 0.5% glutaraldehyde aqueous solution. After the fixation, the cells were soaked in a staining solution [prepared by dissolving 1 mg/ml of X-gal (5-bromo-4-chloro-3-indolyl-[…]), 5 mmol//L potassium ferrocyanide, 5 mmol//L potassium feriocyanide and 1 mmol//L magnesium chloride in phosphate buffered saline (PBS; pH 6.0)] and allowed to react at 37° C. for 5 hours or more.
In addition, cell morphology and β-galactosidase activity in each treated group were analyzed in accordance with the procedure described in Reference Example 1(2).

[9] = induction of cellular senescence via Raf-estrogen receptor fusion
[10] = young cell (42 times of division), 10 μmol//L SB203580, same in presence or absence

COc1cccc(-c2cc(=O)c3ccccc3o2)c1N [PD98059]
inhibition of the increase of cellular senescence-specific β-galactosidase positive cell induced by the activation of Raf [1]: partially inhibited
inhibition of the termination of cell growth induced by the activation of Raf [2]: partially inhibited

CC/C(=C(\c1ccccc1)c1ccc(OCCN(C)C)cc1)c1ccccc1 [tamoxifen]
tamoxifen concentration at which increase of cellular senescence-specific β-galactosidase positive cell was observed [1, 9]: ≥ 1 nM
tamoxifen concentration at which termination of cell growth was observed [2, 9]: ≥ 1 nM

COc1ccc(C[C@H]2NC[C@H](O)[C@H]2OC(C)=O)cc1 [anisomycin]
active type p38 protein amount [3]: increased

C[S+]([O-])c1ccc(-c2nc(-c3ccc(F)cc3)c(-c3ccncc3)[nH]2)cc1 (stereo not shown) [SB203580, 4-[4-(4-fluorophenyl)-2-[4-(methylsulfinyl)phenyl]-1H-imidazol-5-yl]-pyridine]
anti-aging activity upon senescent cell ([4]; senescent cell (61 PD) of WI-38, illustrative data not shown): showed the anti-aging activity
cell growth in comparison with the untreated case ([4]; senescent cell (61 times of division), 10 μmol//L SB203580): accelerated growth
doubling time [4, 10]: about 2 days
inhibition of the increase of cellular senescence-specific β-galactosidase positive cell induced by the activation of Raf [1]: more strongly than the PD98059
S phase cell ([5]; senescent cell (61 times of division), 10 μmol//L SB203580, 72 hours of BrdU labeling, untreated about 5%): about 25%
S phase cell [5, 10]: about 20%
growth inhibitory effect by the MKK6 gene or MKK6EE gene [6]: inhibited
increase of the cellular senescence-specific β-galactosidase positive cells [7]: inhibited
cellular senescence-specific β-galactosidase-positive degree [8]: low
morphology of the flat cytoplasm [8]: became thin
inhibition of the termination of cell growth induced by the activation of Raf [2]: more strongly than the PD98059
